According to patent publication US9533973B2, “Allosteric modulators of 5-hydroxytryptamine 2C receptor (5-HT2CR)” (THE BOARD OF REGENTS OF THE UNIVERSITY OF TEXAS SYSTEM, priority 2011, dated 2017):

How the values were obtained:
5-HT2CR [1] = target: T1, 5-HT2CR (Homo sapiens, UniProt P28335); test: 5-HT induced intracellular calcium (Cai++) release assay in live 5-HT2CR-CHO cells; type: cell-based; parameters: expressed in transfected cells
T1 sequence (P28335 33-458): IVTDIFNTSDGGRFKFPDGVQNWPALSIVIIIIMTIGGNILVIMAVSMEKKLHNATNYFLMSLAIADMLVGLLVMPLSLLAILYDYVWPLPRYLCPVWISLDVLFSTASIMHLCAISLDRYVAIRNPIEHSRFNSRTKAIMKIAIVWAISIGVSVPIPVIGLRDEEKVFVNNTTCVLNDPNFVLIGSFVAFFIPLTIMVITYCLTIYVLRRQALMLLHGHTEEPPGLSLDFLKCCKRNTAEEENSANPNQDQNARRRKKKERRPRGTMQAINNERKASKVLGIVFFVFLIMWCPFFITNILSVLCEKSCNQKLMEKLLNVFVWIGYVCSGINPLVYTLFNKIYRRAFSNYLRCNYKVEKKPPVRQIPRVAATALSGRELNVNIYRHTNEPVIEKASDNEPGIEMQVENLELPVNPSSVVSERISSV
Procedure: Selected results for the biological characterization of the synthesized compounds can be found in Ding et al., ACS Chem. Neurosci., 3, 538-545, 2012, and also described herein. The biological activity is assessed using an intracellular calcium (Cai^++) release assay. The best-characterized intracellular signaling pathway of the 5-HT2CR is the activation of phospholipase C (PLCβ) via Gαq/11 proteins and the production of diacylglycerol (DAG) and inositol-1,4,5-trisphosphate (IP3), leading to increased Cai^++ release from intracellular stores (Berg et al., Neuropharmacology 55, 969-76, 2008). Functional characterization of our synthetic PNU-69176E (CYD-1-78-2) and its diastereomer CYD-1-78-1 was determined by utilizing an Cai^++ release assay in live cells in which Cai^++ levels can be regarded as an outcome measure of activation of the 5-HT2CR signaling pathway (Berg et al., Neuropharmacology 55, 969-76, 2008). […] In addition, 1 nM of compound CYD-1-78-2 enhanced the Cai^++ response at low concentrations of 5-HT [10^11-3×10^−10 M; F(15,55)=16.73, p<0.01; FIG. 2]. […] Neither compound CYD-1-78-2 [F(10,68)=0.81, n.s.] nor the diastereomer CYD-1-78-1 [F(10,34)=0.76, n.s.] in concentrations up to 10^−5 M induced Cai^++ release in the 5-HT2CR—CHO cells in the absence of 5-HT (FIG. 3). This profile for compounds CYD-1-78-2 and −1 in 5-HT2CR—CHO cells was distinguished from that seen in 5-HT2AR—CHO cells in which neither compound alone or in the presence of 5-HT (compound CYD-1-78-1, F(10,43)=0.78; compound CYD-1-78-2, F(10,55)=1.27; FIG. 4) altered Cai^++ release (Ding et al., ACS Chem. Neurosci. 3, 538-545, 2012).
The Chinese hamster ovary (CHO) cell line stably transfected with 5-HT2CR was a generous gift of K. Berg and W. Clarke (University of Texas Health Science Center, San Antonio) (K. A. Berg, W. P. Clarke, C. Sailstad, A. Saltzman and S. Maayani, Mol. Pharmacol. 1994, 46 (3), 477-484; Ding et al., ACS Chem. Neurosci. 3, 538-545, 2012). Cells were grown at 37° C., 5% CO2 and 85% relative humidity in GlutaMax α-MEM (Invitrogen, Carlsbad Calif.), 5% fetal bovine serum (Atlanta Biologicals, Atlanta Ga.), 100 μg/mL hygromycin (Mediatech, Manassas Va.) and were passaged when they reached 80% confluence.
Changes in Cai^++ levels were determined using the calcium sensitive dye Calcium 4 (FLIPR No-wash kit, Molecular Devices, Sunnyvale, Calif., part #R8142). Cells were plated in serum-replete medium at 20,000 cells/well in black-sided, clear bottom 96-well tissue culture plates and were fed ˜24 hrs later with serum-free medium. Following overnight incubation, medium was removed and replaced with 40 μL of fresh serum-free medium plus 40 μL Calcium 4 dye solution in Hank's balanced saline solution (HBSS, without CaCl2 or MgCl2) supplemented with 2.5 mM water soluble probenicid (Invitrogen) to inhibit extracellular transport of the dye. Plates were incubated for 60 min at 37° C. and 60 min at room temperature in the dark. Fluorescence (λex=485 nm, λem=525 nm) was measured with a FlexStation3 (Molecular Devices). A baseline was established for each well during the initial segment of each run. Addition of 20 μL of 5× concentrated tested compound occurred at 17 sec and fluorescence was recorded every 1.7 sec for 90 sec to determine any innate agonist activity. This first round of 90 sec recordings provided a 20 min preincubation period. […] Maximum peak height was determined by the FlexStation software (SoftMax Pro 5.2) for each well and was normalized to vehicle control.

5-HT2CR [2] = target: T1, 5-HT2CR; parameters: host or cells: stably transfected HEK293 cells (Im et al., Mol. Pharmacol. 64, 78-84, 2003); conditions: Im et al., 2003, cited from earlier work

In the case of `CCCCCCCCCCC[C@@H]1CCN[C@H](C(=O)N[C@@H]([C@H]2O[C@H](SC)[C@H](O)[C@@H](O)[C@H]2O)[C@H](C)Cl)C1.Cl` [CYD-1-78-2], the “Cai++ release induced by 0.3 nM 5-HT in presence of compound” value (5-HT2CR [1]; 0.3 nM 5-HT (~EC20) alone gives 23.9%, 5-HTmax determined at 1 μM 5-HT) is reported as 48.5 % of 5-HTmax, the “effect on Cai++ release induced by 0.3 nM 5-HT” value (5-HT2CR [1]; 0.3 nM 5-HT, 5-HT2CR-CHO cells) is reported as “potentiated” and the “concentrations that significantly enhanced Cai++ release above that of 0.3 nM 5-HT alone” value (5-HT2CR [1]; 0.3 nM 5-HT, Dunnett's, p<0.05) is reported as 10^−13-10^−7 M. For the same compound, the “effect of 1 nM compound on Cai++ response at low concentrations of 5-HT” value (5-HT2CR [1]; 1 nM compound, 5-HT 10^11-3×10^−10 M) was “enhanced”, the “effect on Cai++ release at the highest concentration utilized” value (5-HT2CR [1]; 10^−5 M compound, 0.3 nM 5-HT, p<0.05) was “reduced” and the “Cai++ release in the absence of 5-HT (intrinsic agonist activity)” value (5-HT2CR [1]; concentrations up to 10^−5 M, no 5-HT) was “n.s. and did not detect intrinsic agonist activity”. The “intrinsic activation of GTPγS binding and IP3 release/[3H]IP accumulation in the absence of 5-HT” value (5-HT2CR [2]; HEK293 cell line (~45 pmol/mg protein)) was “detected intrinsic activation”, the “concentrations giving positive allosteric modulation in the presence of 5-HT” value (5-HT2CR [2]) was “less than 10 μM” and the “modulation at higher concentrations in the presence of 5-HT” value (5-HT2CR [2]; concentrations above 10 μM) was “negative allosteric modulation”.
